Here are results for three substances from paper PMC5329948, “Caspase vinyl sulfone small molecule inhibitors prevent axonal degeneration in human neurons and reverse cognitive impairment in Caspase-6-overexpressing mice” (Molecular Neurodegeneration, 2017).

Broadly, the Km is the substrate concentration at which the rate is half of its maximum.

A value given as a limit tells only on which side of the number the result lay.

The subject of series [1] is Casp6 (VEID-aminoluciferin cleavage). Further details: method as in PMID 25616965. Particulars: read-out: inhibition of cleavage of VEID-aminoluciferin; cited from earlier work.
Another series deals with Caspase-5. More on the design: method as in PMID 25616965. Particulars: cited from earlier work.
For series [2], the system named is Casp6 (mutant huntingtin cleavage). More on the design: method as in PMID 25616965. Particulars: read-out: IC50 against mutant huntingtin cleavage (FRET); cited from earlier work.
The test system of another series is Caspase-3. Further details: method as in PMID 9092497. Particulars: read-out: Michaelis-Menten constant (Km) for Caspase-3; cited from earlier work.
For the next series, the system named is recombinant Casp6. More on the design: method as in PMID 9092497. Particulars: read-out: Michaelis-Menten constant (Km) for recombinant Casp6; cited from earlier work.
The test system of the next series is mammals. Particulars: fmk moiety metabolized into fluorocitrate; cited from earlier work.
Series [3] relates to APPWT-transfected primary human CNS neurons. In words: Neuritic beading/degeneration in APPWT-transfected primary human neurons. Format: cell-based. Particulars: NWL 100 μM, Z-VEID-fmk 5 μM. On the procedure:
Immunofluorescence on human neuron cultures: Primary human neurons were pre-treated 2 h and serum-deprived in the presence of 100 μM NWL-117, 100 μM NWL-154, or 5 μM Z-VEID-fmk (Biomol, Plymouth meeting, PA, USA) for 24 h. Following treatment, human neurons were washed once with warm PBS, fixed for 20 min at room temperature with 4% paraformaldehyde (Sigma, Oakville, ON, CA)/4% sucrose (BioRad, Mississauga, ON, CA) for TubΔCasp6 or 2% formaldehyde (Thermo Fisher Scientific, Waltham, MA, USA)/0.2% glutaraldehyde (Sigma, Oakville, ON, CA) for pBudEGFP or pBudEGFP/APP^WT-transfected neurons, incubated in permeabilization buffer (0.1% Triton X-100, 0.1 sodium citrate) for 1 min on ice, washed with PBS, blocked for 20 min at room temperature with 10% goat serum (Sigma, Oakville, ON, CA), and incubated with primary antibodies diluted in 10% goat serum in PBS overnight at 4 °C in a humid chamber. The glass coverslips were washed with PBS, and incubated with goat anti-rabbit secondary antibody coupled to Alexa 488 (Molecular Probes, Eugene, OR, USA) or Cy3 (GE Healthcare Life Sciences, Baie D’Urfe, QC, CA) and Hoechst 33342 (ImmunoChemistry, Bloomington, MN, USA) at 1 μg/mL for 2 h at room temperature. The coverslips were washed with PBS and rinsed in Milli-Q water before mounting in fluoromount (Dako, Burlington, ON, CA). Images were acquired by fluorescence microscopy and quantified using the ImageJ software (NIH, Bethesda, MD, USA) for TubΔCasp6 and manually counted for transfected EGFP(+)-neurons. Time lapse-imaging by live fluorescence microscopy: Primary human neurons were transfected with gold beads coated with pBudEGFP or pBudEGFP/APP^WT using a Helios Gene gun (BioRad, Mississauga, ON, CA). Briefly, cells were pre-treated with 100 μM NWL inhibitors or 5 μM Z-VEID-fmk for 2 h. The media was removed and the neurons were shot at 100 psi. The media was quickly replaced with the inhibitors present. The plasmid was expressed for 16 h before setting up the fluorescence microscope (Nikon Eclipse Ti) to acquire 20 images per condition every hour for 72 h at 37 °C with 5% CO2. The images were analyzed by counting the total number of neurons (50–100 neurons per condition per independent experiment), and the number of beaded, swollen soma, and healthy neurons. In addition, the time at which cells beaded was noted. Phase contrast microscopy: HCT116 cells, plated at a density of 1×10^5 cells/well and human neurons, plated at a density of 6×10^6 cells/well on poly-L-lysine were treated with PBS, 100 μM NWL-117, 100 μM NWL-154, or 2 μM staurosporine (Biomol, Plymouth meeting, PA, USA) for 24 h. Images were acquired with the Nikon Eclipse Ti microscope and the NIS-Elements (Version 3.10) software.

In the case of “ED11: 24 amino acid peptide (GRKKRRQRRRPPQSSEIVLDGTDN) containing HIV TAT-peptide and huntingtin sequences; Casp6 inhibitor”, the results for the IC50 in series [1] and in series [2] were more than 10000 nM and 12.1 nM, respectively. Also, in the series on Caspase-5, the “Caspase-5 activity on the FRET assay” value is on record as “significant enhancement”.
On to “VEID: Val-Glu-Ile-Asp peptide substrate sequence preferred by Casp6 (printed: Val-Glu-Ile-Asp)”, for which the Michaelis constant (Km) with Caspase-3 was 250 µM; in the series with recombinant Casp6 it was 30 µM.
On to “benzyloxycarbonyl-Val-Glu-Ile-Asp-fmk [Z-VEID-fmk, reference compound]”, for which the toxicity to mammals entry with mammals was “toxic to mammals”. For the same substance, the neuritic beading entry in series [3] (APPWT/EGFP co-expression, 48 h) was “prevented neuritic beading”. Further, in series [3] (live imaging 72 h, APPWT vehicle 1.52, EGFP-alone 1.00, mean ± SEM), the “percentage of beaded neurons, fold of EGFP-alone” value came out at 0.97 fold.
